From the NIST ThermoML archive (doi:10.1016/j.jct.2017.06.001)
Numbers after ± are expanded uncertainties.

Test: xn = mol fraction of the nth substance listed
Details: 100 kPa, Liquid; for speed of sound: Frequency=5 MHz, Pulse-echo method; for mass density: Vibrating tube method

OCCCCCO [1,5-pentanediol] + O
Details	mass density [kg/m3]	speed of sound [m/s]
303.15 K, x1 = 0.005	995.24 ± 0.52	–
303.15 K, x1 = 0.0101	995.18 ± 1	–
303.15 K, x1 = 0.0196	995.46 ± 1	–
303.15 K, x1 = 0.0251	995.87 ± 1	–
303.15 K, x1 = 0.0304	996.33 ± 1	–
303.15 K, x1 = 0.05	997.59 ± 1	–
303.15 K, x1 = 0.0769	998.6 ± 1	–
303.15 K, x1 = 0.1002	999.37 ± 1.1	–
303.15 K, x1 = 0.1172	–	1668.9 ± 1.2
303.15 K, x1 = 0.1188	–	1669.4 ± 1.2
303.15 K, x1 = 0.1225	–	1670.4 ± 1.2
303.15 K, x1 = 0.1232	–	1670.5 ± 1.2
303.15 K, x1 = 0.127	–	1671.5 ± 1.2
303.15 K, x1 = 0.1286	–	1671.8 ± 1.2
303.15 K, x1 = 0.1312	–	1672.4 ± 1.2
303.15 K, x1 = 0.1344	–	1673 ± 1.2
303.15 K, x1 = 0.135	–	1673.1 ± 1.2
303.15 K, x1 = 0.1389	–	1673.8 ± 1.2
303.15 K, x1 = 0.1394	–	1673.8 ± 1.2
303.15 K, x1 = 0.1438	999.75 ± 1.1	–
303.15 K, x1 = 0.1443	–	1674.5 ± 1.3
303.15 K, x1 = 0.1445	–	1674.6 ± 1.3
303.15 K, x1 = 0.1496	–	1675.2 ± 1.3
303.15 K, x1 = 0.1507	–	1675.3 ± 1.3
303.15 K, x1 = 0.1548	–	1675.7 ± 1.3
303.15 K, x1 = 0.1571	–	1675.9 ± 1.3
303.15 K, x1 = 0.1598	–	1676.1 ± 1.3
303.15 K, x1 = 0.163	–	1676.3 ± 1.3
303.15 K, x1 = 0.1658	–	1676.5 ± 1.3
303.15 K, x1 = 0.1708	–	1676.7 ± 1.3
303.15 K, x1 = 0.1802	–	1676.9 ± 1.3
303.15 K, x1 = 0.1845	999.44 ± 1.1	–
303.15 K, x1 = 0.1897	–	1677 ± 1.3
303.15 K, x1 = 0.1979	–	1676.8 ± 1.3
303.15 K, x1 = 0.2069	–	1676.6 ± 1.3
303.15 K, x1 = 0.2148	–	1676.3 ± 1.3
303.15 K, x1 = 0.2235	–	1675.9 ± 1.3
303.15 K, x1 = 0.2319	–	1675.5 ± 1.3
303.15 K, x1 = 0.2409	–	1674.9 ± 1.3
303.15 K, x1 = 0.2503	998.42 ± 1.2	–
303.15 K, x1 = 0.2504	–	1674.3 ± 1.3
303.15 K, x1 = 0.2626	–	1673.4 ± 1.4
303.15 K, x1 = 0.2732	–	1672.6 ± 1.4
303.15 K, x1 = 0.2834	–	1671.8 ± 1.4
303.15 K, x1 = 0.2953	–	1670.8 ± 1.4
303.15 K, x1 = 0.3	997.34 ± 1.2	–
303.15 K, x1 = 0.3083	–	1669.6 ± 1.4
303.15 K, x1 = 0.3214	–	1668.4 ± 1.4
303.15 K, x1 = 0.3343	996.61 ± 1.3	–
303.15 K, x1 = 0.3389	–	1666.8 ± 1.4
303.15 K, x1 = 0.3516	–	1665.5 ± 1.4
303.15 K, x1 = 0.3648	–	1664.2 ± 1.4
303.15 K, x1 = 0.3773	–	1662.8 ± 1.5
303.15 K, x1 = 0.3937	–	1661.1 ± 1.5
303.15 K, x1 = 0.4071	–	1659.6 ± 1.5
303.15 K, x1 = 0.4171	994.93 ± 1.4	–
303.15 K, x1 = 0.4199	–	1658.1 ± 1.5
303.15 K, x1 = 0.4346	–	1656.3 ± 1.5
303.15 K, x1 = 0.447	–	1654.8 ± 1.5
303.15 K, x1 = 0.454	994.03 ± 1.4	–
303.15 K, x1 = 0.4637	–	1652.8 ± 1.6
303.15 K, x1 = 0.4812	–	1650.5 ± 1.6
303.15 K, x1 = 0.4955	–	1648.6 ± 1.6
303.15 K, x1 = 0.5003	993 ± 1.5	–
303.15 K, x1 = 0.5124	–	1646.4 ± 1.6
303.15 K, x1 = 0.5315	–	1643.8 ± 1.6
303.15 K, x1 = 0.5362	992.2 ± 1.5	–
303.15 K, x1 = 0.5497	–	1641.2 ± 1.7
303.15 K, x1 = 0.5687	–	1638.5 ± 1.7
303.15 K, x1 = 0.5883	–	1635.7 ± 1.7
303.15 K, x1 = 0.6098	–	1632.7 ± 1.7
303.15 K, x1 = 0.6177	990.7 ± 1.7	–
303.15 K, x1 = 0.63	–	1629.8 ± 1.8
303.15 K, x1 = 0.6445	–	1627.7 ± 1.8
303.15 K, x1 = 0.6478	990.1 ± 1.7	–
303.15 K, x1 = 0.6622	–	1625.2 ± 1.8
303.15 K, x1 = 0.6847	–	1622 ± 1.8
303.15 K, x1 = 0.7025	989.2 ± 1.8	–
303.15 K, x1 = 0.7039	–	1619.3 ± 1.9
303.15 K, x1 = 0.7252	–	1616.4 ± 1.9
303.15 K, x1 = 0.7448	–	1613.7 ± 1.9
303.15 K, x1 = 0.7504	988.4 ± 1.9	–
303.15 K, x1 = 0.7674	–	1610.7 ± 2
303.15 K, x1 = 0.7881	–	1608.1 ± 2
303.15 K, x1 = 0.7927	987.6 ± 2	–
303.15 K, x1 = 0.8098	–	1605.3 ± 2
303.15 K, x1 = 0.8318	–	1602.6 ± 2
303.15 K, x1 = 0.8478	–	1600.6 ± 2.1
303.15 K, x1 = 0.8605	986.4 ± 2.1	–
303.15 K, x1 = 0.8678	–	1598.2 ± 2.1
303.15 K, x1 = 0.8839	–	1596.3 ± 2.1
303.15 K, x1 = 0.9004	985.7 ± 2.2	–
303.15 K, x1 = 0.9005	–	1594.4 ± 2.1
303.15 K, x1 = 0.9185	–	1592.2 ± 2.2
303.15 K, x1 = 0.9359	–	1590.2 ± 2.2
303.15 K, x1 = 0.9494	–	1588.6 ± 2.2
303.15 K, x1 = 0.9496	984.6 ± 2.3	–
303.15 K, x1 = 0.9623	–	1587.1 ± 2.2
303.15 K, x1 = 0.9723	–	1585.9 ± 2.3
303.15 K, x1 = 0.9822	–	1584.7 ± 2.3
303.15 K, x1 = 0.9892	–	1583.9 ± 2.3
303.15 K, x1 = 0.9947	–	1583.2 ± 2.3
303.15 K, x1 = 0.9972	–	1582.9 ± 2.3
303.15 K, x1 = 1	983.6 ± 2.1	1582.5 ± 2.3
308.15 K, x1 = 0.0001	–	1519.6 ± 1.1
308.15 K, x1 = 0.0003	–	1520.1 ± 1.1
308.15 K, x1 = 0.0005	–	1520.7 ± 1.1
308.15 K, x1 = 0.0007	–	1521.5 ± 1.1
308.15 K, x1 = 0.001	–	1522.4 ± 1.1
308.15 K, x1 = 0.0014	–	1523.4 ± 1.1
308.15 K, x1 = 0.0018	–	1524.7 ± 1.2
308.15 K, x1 = 0.0023	–	1526.2 ± 1.2
308.15 K, x1 = 0.0028	–	1527.9 ± 1.2
308.15 K, x1 = 0.0034	–	1529.7 ± 1.2
308.15 K, x1 = 0.004	–	1531.4 ± 1.2
308.15 K, x1 = 0.0047	–	1533.5 ± 1.2
308.15 K, x1 = 0.0055	–	1535.7 ± 1.2
308.15 K, x1 = 0.0064	–	1538.1 ± 1.2
308.15 K, x1 = 0.0073	–	1540.8 ± 1.2
308.15 K, x1 = 0.0083	–	1543.6 ± 1.2
308.15 K, x1 = 0.0094	–	1546.5 ± 1.2
308.15 K, x1 = 0.0105	–	1549.3 ± 1.2
308.15 K, x1 = 0.0116	–	1552.2 ± 1.2
308.15 K, x1 = 0.0129	–	1555.4 ± 1.2
308.15 K, x1 = 0.0141	–	1558.3 ± 1.2
308.15 K, x1 = 0.0154	–	1561.5 ± 1.2
308.15 K, x1 = 0.0167	–	1564.5 ± 1.2
308.15 K, x1 = 0.0181	–	1567.6 ± 1.2
308.15 K, x1 = 0.0195	–	1570.7 ± 1.2
308.15 K, x1 = 0.0211	–	1574.1 ± 1.2
308.15 K, x1 = 0.0225	–	1577 ± 1.2
308.15 K, x1 = 0.0238	–	1579.8 ± 1.2
308.15 K, x1 = 0.0252	–	1582.6 ± 1.2
308.15 K, x1 = 0.0268	–	1585.5 ± 1.2
308.15 K, x1 = 0.0283	–	1588.5 ± 1.2
308.15 K, x1 = 0.0298	–	1591.2 ± 1.2
308.15 K, x1 = 0.0316	–	1594.3 ± 1.2
308.15 K, x1 = 0.0336	–	1597.7 ± 1.2
308.15 K, x1 = 0.0351	–	1600.2 ± 1.2
308.15 K, x1 = 0.0367	–	1602.6 ± 1.2
308.15 K, x1 = 0.0384	–	1605.2 ± 1.2
308.15 K, x1 = 0.0403	–	1608.1 ± 1.2
308.15 K, x1 = 0.0417	–	1610 ± 1.2
308.15 K, x1 = 0.0436	–	1612.7 ± 1.2
308.15 K, x1 = 0.0459	–	1615.8 ± 1.2
308.15 K, x1 = 0.0481	–	1618.5 ± 1.2
308.15 K, x1 = 0.0505	–	1621.5 ± 1.2
308.15 K, x1 = 0.0528	–	1624 ± 1.2
308.15 K, x1 = 0.0551	–	1626.6 ± 1.2
308.15 K, x1 = 0.0574	–	1629 ± 1.2
308.15 K, x1 = 0.0594	–	1631 ± 1.2
308.15 K, x1 = 0.062	–	1633.4 ± 1.2
308.15 K, x1 = 0.0648	–	1635.9 ± 1.2
308.15 K, x1 = 0.0671	–	1637.9 ± 1.2
308.15 K, x1 = 0.0706	–	1640.7 ± 1.2
308.15 K, x1 = 0.073	–	1642.4 ± 1.2
308.15 K, x1 = 0.0758	–	1644.4 ± 1.2
